Measured values from patent publication US20170119640A1, “Methods of Improving Glucose Tolerance, Hair Regrowth, and Bio-Availability” (priority 2015, published 2017).

Tests used:
[1] = system: female Albino Wistar rats; assay: glucose tolerance test; type: in vivo, rat; details: six month old female Albino Wistar rats; 25, 50, 75 mg/kg body wt daily for four months; 6 h fast, 2 g/kg intraperitoneally, blood at 0-120 min; p<0.01 ResArgin, p<0.05 resveratrol
Protocol: (§1) To determine the efficacy of resveratrol-arginine conjugate, six month old female Albino Wistar rats were divided into seven groups (six rats per group) and given the following daily treatment for four months:
(§2) Group 2: 25 mg ResArgin/kg body wt; Group 3: 50 mg ResArgin/kg body wt; Group 4: 75 mg ResArgin/kg body wt; Group 5: 25 mg Resveratrol/kg body wt; Group 6: 50 mg Resveratrol/kg body wt;
Group 7: 75 mg Resveratrol/kg body wt. In one embodiment, glucose tolerance levels were tested via a glucose tolerance test and analysis was performed. Compared to the Control group, glucose tolerance was improved in the ResArgin and resveratrol groups (p<0.01 and p<0.05 respectively) over the experimental period.
In one embodiment, glucose tolerance tests were performed after having the rats fast for 6 hours and injecting 2 g/kg body weight intraperitoneally. Blood was then collected from the tail vein at 0, 15, 30, 60 and 120 minutes after injection.

[2] = system: female Albino Wistar rats; assay: hair regrowth assay; type: in vivo, rat; details: six month old female Albino Wistar rats; 25, 50, 75 mg/kg body wt daily for four months; dorsal hair plucked from 1.5 cm×1.5 cm, scored two weeks later from digital photographs
Protocol: as §1, §2
In another embodiment, hair regrowth assay was done and quantified. Compared to the Control group, hair regrowth was improved in the ResArgin and resveratrol groups over the experimental period.
In the hair regrowth assay, dorsal hair was removed by plucking from a square of approximately 1.5 cm×1.5 cm. Hair growth and re-growth was scored two weeks later on the basis of digital photographs.

Q: Which results are given for `Oc1ccc(C=Cc2cc(O)cc(O)c2)cc1` [resveratrol]?
A: glucose tolerance compared to the Control group [1]: improved; hair regrowth compared to the Control group [2]: improved
